Legend:
[1] = test system: MIA PaCa-2; assay: Antiproliferative activity against human MIA PaCa-2 cells assessed as reduction of cell viability incubated for 72 hrs by CCK-8 assay; assay type: functional, cell-based; conditions: MIA PaCa-2, 72 h
[2] = Antiproliferative activity against human MG-63.3 cells assessed as reduction in cell viability measured for 24 hrs by MTT assay; assay type: functional, cell-based; conditions: MG-63.3, 24 h
[3] = test system: 143B; assay: Antiproliferative activity against human 143B cells assessed as inhibition of cell growth measured after 24 hrs by MTT assay; assay type: functional, cell-based
[4] = Half life in Beagle dog at 7.5 mg/kg, iv measured for 8 to 12 hrs by LC-MS/MS analysis; assay type: ADME, organism-based, Canis lupus familiaris; conditions: in vivo, time 8-12 hrs
[5] = Antiproliferative activity against human HEC-251 cells assessed as reduction in cell viability; assay type: functional, cell-based
[6] = test system: T-24; assay: Antiproliferative activity against human T24 cells assessed as reduction in cell viability incubated for 48 hrs by MTT assay; assay type: functional, cell-based; conditions: T-24, 48 h
[7] = test system: NCI-H1975; assay: Antiproliferative activity against human NCI-H1975 cells assessed as reduction in cell viability incubated for 48 hrs by MTT assay; assay type: functional, cell-based; conditions: NCI-H1975, 48 h
[8] = test system: HepG2; assay: Antiproliferative activity against human HepG2 cells; assay type: functional, cell-based
[9] = test system: MDA-MB-231; assay: Antiproliferative activity against human MDA-MB-231 cells assessed as reduction in cell viability incubated for 24 hrs by MTT assay; assay type: functional, cell-based; conditions: MDA-MB-231, 24 h
[10] = test system: HL-60; assay: Cytotoxicity against human HL-60 cells assessed as reduction in cell viability incubated for 48 hrs by MTT assay; assay type: functional, cell-based; conditions: HL-60, 48 h
[11] = Half life in Beagle dog at 15 mg/kg, iv measured for 8 to 12 hrs by LC-MS/MS analysis; assay type: ADME, organism-based, Canis lupus familiaris; conditions: in vivo, time 8-12 hrs
[12] = test system: LLC-MK2; assay: Antiproliferative activity against Rhesus monkey LLC-MK2 cells assessed as reduction in cell viability incubated for 48 hrs by MTT assay; assay type: functional, cell-based; conditions: Macaca mulatta, LLC-MK2, 48 h
[13] = test system: SK-MEL3; assay: Antiproliferative activity against human SK-MEL3 cells harboring BRAF V600E mutant assessed as reduction in cell viability by cell-titer Glo assay; assay type: functional, cell-based
[14] = test system: A549; assay: Antiproliferative activity against human A549 cells assessed as reduction in cell viability incubated for 48 hrs by MTT assay; assay type: functional, cell-based; conditions: A549, 48 h
[15] = test system: HeLa; assay: Antiproliferative activity against human HeLa cells assessed as reduction in cell viability incubated for 48 hrs by MTT assay; assay type: functional, cell-based
[16] = test system: A549; assay: Antiproliferative activity against human A549 cells assessed as reduction in cell viability incubated for 72 hrs by MTT assay; assay type: functional, cell-based; conditions: A549, 72 h
[17] = test system: HepG2; assay: Anticancer activity against human HepG2 cells assessed as reduction in cell viability; assay type: functional, cell-based
[18] = test system: 143B; assay: Antiproliferative activity against human 143B cells assessed as inhibition of cell growth measured after 48 hrs by MTT assay; assay type: functional, cell-based
[19] = test system: HepG2; assay: Antiproliferative activity against human HepG2 cells assessed as inhibition of cell growth relative to control; assay type: functional; design: scale not given: the % may be the effect or the level left
[20] = test system: A-375; assay: Antiproliferative activity against human A-375 cells assessed as reduction in cell viability incubated for 72 hrs by MTT assay; assay type: functional, cell-based; conditions: A-375, 72 h
[21] = test system: 143B; assay: Antiproliferative activity against human 143B cells assessed as inhibition of cell growth measured after 72 hrs by MTT assay; assay type: functional, cell-based
[22] = Half life in rat at 25 mg/kg, iv; assay type: ADME, organism-based; conditions: in vivo
[23] = test system: LNCaP; assay: Cytotoxicity against human LNCaP cells assessed as reduction in cell growth incubated for 72 hrs by MTT assay; assay type: functional, cell-based
[24] = test system: Ishikawa; assay: Antiproliferative activity against human Ishikawa cells assessed as reduction in cell viability by MTS assay; assay type: functional, cell-based
[25] = test system: HCT-116; assay: Antiproliferative activity against human HCT-116 cells assessed as reduction in cell viability incubated for 72 hrs by MTT assay; assay type: functional, cell-based; conditions: HCT-116, 72 h
[26] = test system: MDA-MB-468; assay: Antiproliferative activity against human MDA-MB-468 cells assessed as reduction in cell viability incubated for 72 hrs by MTT assay; assay type: functional, cell-based; conditions: MDA-MB-468, 72 h
[27] = Antiproliferative activity against human EFM-192A cells; assay type: functional, cell-based
[28] = test system: LNCaP; assay: Cytotoxicity against human LNCaP cells assessed as reduction in cell growth incubated for 48 hrs by MTT assay; assay type: functional, cell-based
[29] = test system: Huh-7; assay: Antiproliferative activity against human Huh-7 cells; assay type: functional, cell-based
[30] = Antiproliferative activity against human MG-63.3 cells assessed as reduction in cell viability measured for 72 hrs by MTT assay; assay type: functional, cell-based; conditions: MG-63.3, 72 h
[31] = Antiproliferative activity against human SNU-739 cells; assay type: functional, cell-based
[32] = test system: EJM; assay: Antitumor activity against human EJM cells assessed as reduction in cell viability incubated for 24 hrs by CCK-8 assay; assay type: functional, cell-based
[33] = test system: HepG2; assay: Anticancer activity against human HepG2 cells assessed as cell growth reduction incubated for 24 hrs by MTT assay; assay type: functional, cell-based; conditions: HepG2, 24 h
[34] = test system: HL-60; assay: Antiproliferative activity against human HL-60 cells assessed as reduction in cell viability incubated for 72 hrs by MTT assay; assay type: functional, cell-based; conditions: HL-60, 72 h
[35] = test system: PLC-PRF-5; assay: Antiproliferative activity against human PLC-PRF-5 cells; assay type: functional, cell-based
[36] = Half life in rat at 50 mg/kg, iv; assay type: ADME, organism-based; conditions: in vivo
[37] = test system: HepG2; assay: Antiproliferative activity against human HepG2 cells assessed as reduction in cell growth; assay type: functional, cell-based
[38] = Half life in Beagle dog at 30 mg/kg, iv measured for 8 to 12 hrs by LC-MS/MS analysis; assay type: ADME, organism-based, Canis lupus familiaris; conditions: in vivo, time 8-12 hrs
[39] = test system: HLE; assay: Antiproliferative activity against human HLE cells; assay type: functional, cell-based
[40] = test system: LNCaP; assay: Cytotoxicity against human LNCaP cells assessed as reduction in cell growth incubated for 24 hrs by MTT assay; assay type: functional, cell-based
[41] = test system: SNU-449; assay: Antiproliferative activity against human SNU-449 cells; assay type: functional, cell-based
[42] = test system: HepG2; assay: Anticancer activity against human HepG2 cells assessed as reduction in cell viability measured for 24 hrs by MTT assay; assay type: functional, cell-based; conditions: HepG2, 24 h
[43] = Oral bioavailability in rat at 10 mg/kg; assay type: ADME, organism-based; conditions: in vivo
[44] = test system: SMMC-7721; assay: Antiproliferative activity against human SMMC-7721 cells assessed as reduction in cell viability incubated for 24 hrs by CCK-8 assay; assay type: functional, cell-based; conditions: SMMC-7721, 24 h
[45] = Elimination half life in rat at 2 mg/kg, iv; assay type: ADME, organism-based; conditions: in vivo, read-out: beta t1/2 (converted)
[46] = test system: PC-3; assay: Antiproliferative activity against human PC-3 cells assessed as reduction of cell viability incubated for 24 to 72 hrs by CCK-8 assay; assay type: functional, cell-based
[47] = test system: HeLa; assay: Antiproliferative activity against human HeLa cells assessed as reduction in cell viability by MTT assay; assay type: functional, cell-based
[48] = test system: Bel-7402; assay: Antiproliferative activity against human Bel-7402 cells incubated for 72 hrs by MTT assay; assay type: functional, cell-based; conditions: Bel-7402, 72 h
[49] = Antiproliferative activity against human MG-63.3 cells assessed as reduction in cell viability measured for 48 hrs by MTT assay; assay type: functional, cell-based; conditions: MG-63.3, 48 h
[50] = test system: HuH-1; assay: Antiproliferative activity against human HuH-1 cells; assay type: functional, cell-based
[51] = test system: HepG2; assay: Anticancer activity against human HepG2 cells assessed as cell growth reduction incubated for 48 hrs by MTT assay; assay type: functional, cell-based; conditions: HepG2, 48 h
[52] = test system: HCC 2998; assay: Antiproliferative activity against human HCC 2998 cells assessed as reduction in cell viability incubated for 72 hrs by MTT assay; assay type: functional, cell-based; conditions: HCC 2998, 72 h
[53] = test system: MCF7; assay: Antiproliferative activity against human MCF7 cells assessed as reduction in cell viability incubated for 72 hrs by MTT assay; assay type: functional, cell-based; conditions: MCF7, 72 h
[54] = Half life in rat at 100 mg/kg, iv; assay type: ADME, organism-based; conditions: in vivo
[55] = test system: HCT-116; assay: Anticancer activity against human HCT-116 cells; assay type: functional, cell-based
[56] = test system: A549; assay: Cytotoxicity against human A549 cells assessed as reduction in cell viability incubated for 48 hrs by Alamar Blue assay; assay type: functional, cell-based; conditions: A549, 48 h
[57] = test system: MCF7; assay: Cytotoxicity against human MCF7 cells assessed as reduction in cell viability incubated for 72 hrs by MTT assay; assay type: functional, cell-based; conditions: MCF7, 72 h
[58] = test system: HeLa; assay: Cytotoxicity against human HeLa cells assessed as reduction in cell viability by MTT assay; assay type: functional, cell-based
[59] = test system: HCT-116; assay: Antiproliferative activity against human HCT-116 cells assessed as inhibition of cell growth incubated for 72 hrs by CCK-8 assay relative to control; assay type: functional; design: scale not given: the % may be the effect or the level left
[60] = test system: HepG2; assay: Antiproliferative activity against human HepG2 cells assessed as inhibition of cell growth incubated for 72 hrs by CCK-8 assay relative to control; assay type: functional; design: scale not given: the % may be the effect or the level left
[61] = test system: HeLa; assay: Antiproliferative activity against human HeLa cells assessed as inhibition of cell growth incubated for 72 hrs by CCK-8 assay relative to control; assay type: functional; design: scale not given: the % may be the effect or the level left

## COc1ccc(CCc2cc(OC)c(OC)c(OC)c2)cc1O
[1]
  IC50: 50 nM
[2]
  IC50: 88.7 nM
[3]
  IC50: 58.2 nM
[4]
  half-life: 1.41 h
[5]
  IC50: 41.8 nM
[6]
  IC50: 45.9 nM
[7]
  IC50: 0.5 nM
[8]
  IC50: 584 nM
[9]
  IC50: 71 nM
[10]
  IC50: 40 nM
[11]
  half-life: 1.66 h
[12]
  IC50: 2.3 nM
[13]
  IC50: 12 nM
[14]
  IC50: 0.6 nM
[15]
  IC50: 8300 nM
[16]
  IC50: 70 nM
[17]
  IC50: 72.8 nM
[18]
  IC50: 41 nM
[19]
  Activity: 82.81%
[20]
  IC50: 20.6 nM
[21]
  IC50: 26.8 nM
[22]
  half-life: 3.66 h
[23]
  IC50: 26.2 nM
[24]
  IC50: 40.6 nM
[25]
  IC50: 60 nM
[26]
  IC50: 40 nM
[27]
  IC50: 78.6 nM
[28]
  IC50: 26.5 nM
[29]
  IC50: 44.3 nM
[30]
  IC50: 17.2 nM
[31]
  IC50: 17.7 nM
[32]
  IC50: 65 nM
[33]
  IC50: 128 nM
[34]
  IC50: 38 nM
[35]
  IC50: 55 nM
[36]
  half-life: 3.75 h
[37]
  IC50: 175 nM
[38]
  half-life: 1.6 h
[39]
  IC50: 28.6 nM
[40]
  IC50: 33.8 nM
[41]
  IC50: 236 nM
[42]
  IC50: 43.7 nM
[43]
  bioavailability: 8.7%
[44]
  IC50: 81 nM
[45]
  half-life: 1.5 h
[46]
  IC50: 26 nM
[47]
  IC50: 220 nM
[48]
  IC50: 21.5 nM
[49]
  IC50: 44.3 nM
[50]
  IC50: 25.9 nM
[51]
  IC50: 120 nM
[52]
  IC50: 70 nM
[53]
  IC50: 60 nM
[54]
  half-life: 3.89 h

## Oc1ccc(CCc2cc(O)c(O)c(O)c2)cc1O
[55]
  IC50: 42000 nM
[56]
  IC50: 42000 nM

## COc1cc(CCc2ccc(OC(F)F)c(N)c2)cc(OC)c1OC
[57]
  IC50: 130 nM

## CCOc1ccc(CCc2cc(OC)c(OC)c(OC)c2)cc1OP(=O)(O)O
[58]
  IC50: 570 nM

## COc1ccc(/C=C\c2cc(OC)c(OC)c(OC)c2)cc1OP(=O)(O)O [FOSBRETABULIN]
[59]
  Activity: 86.1%
[60]
  Activity: 88.6%
[61]
  Activity: 84.7%

Source: ChEMBL document CHEMBL5543061, “Recent advances of antitumor leading compound Erianin: Mechanisms of action and structural modification” (Eur J Med Chem, 2023)
